According to patent US11780826B2 (Amgen Inc., priority 2017, dated 2023):

The compounds below were run on Bovine cardiac myofibrils (assay: In vitro model of dose-dependent myofibril ATPase modulation (AC1.4, pyruvate kinase/lactate dehydrogenase-coupled ATPase assay at pCa25)). Conditions: concentration at which ATPase activity was 1.4-fold higher than the bottom of the dose curve, mean of a minimum of two independent tests.
Type: biochemical
Outline: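 ATP turnover tracked as NADH absorbance loss at 340 nm, coupled via pyruvate kinase/lactate dehydrogenase, with 1 mM ATP, 2 mM MgCl2 and 12 mM K-PIPES at pH 6.80 (22° C) under EGTA/CaCl2 calcium buffering. Substrate was detergent-treated bovine cardiac myofibrils; 4-parameter curve fit, AC1.4 averaged over at least two runs.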

Question: How did the AC1.4 turn out when CC[C@H](NC(=O)[C@H]1CCCN1C(=O)c1cccc(S(=O)(=O)N2CC(C#N)C2)c1)c1ccc(C(F)(F)F)cc1F [Example 204, 1-(3-((3-cyano-1-azetidinyl)sulfonyl)benzoyl)-N-((1S)-1-(2-fluoro-4-(trifluoromethyl)phenyl)propyl)-D-prolinamide] was run?
Answer: The AC1.4 was 0.4305 µM.

Question: How did the AC1.4 turn out when C[C@@H](NC(=O)[C@H]1CCCN1C(=O)c1cccc(S(=O)(=O)N2CC(C#N)C2)c1)c1cc(F)cc(F)c1 [Example 205, 1-(3-((3-cyano-1-azetidinyl)sulfonyl)benzoyl)-N-((1R)-1-(3,5-difluorophenyl)ethyl)-D-prolinamide] was run?
Answer: Its AC1.4 is 0.4322 µM.

Question: For N#CC1CN(S(=O)(=O)N2CCC[C@H](C(=O)N3CCC[C@@H]3C(=O)NCc3cccc(Cl)c3Cl)C2)C1 [Example 206, 1-(((3S)-1-((3-cyano-1-azetidinyl)sulfonyl)-3-piperidinyl)carbonyl)-N-(2,3-dichlorobenzyl)-D-prolinamide], which AC1.4 is on record?
Answer: The AC1.4 was 0.4338 µM.

Question: For CS(=O)(=O)c1cccc(C(=O)N2[C@@H](C(=O)N[C@@H](c3ccc(Cl)cc3F)C3COC3)C[C@H]3C[C@H]32)c1 [Example 207, (1R,3R,5R)-N-((R)-(4-chloro-2-fluorophenyl)(3-oxetanyl)methyl)-2-(3-(methylsulfonyl)benzoyl)-2-azabicyclo[3.1.0]hexane-3-carboxamide], which AC1.4 is on record?
Answer: The AC1.4 was 0.4436 µM.

Question: CC(O)(c1cccc(C(=O)N2CCCC[C@@H]2C(=O)N[C@@H](c2ccc(C(F)(F)F)cc2F)C2CC2)c1)C(F)(F)F (stereo partly drawn) [Example 208, (2R)-N-((R)-cyclopropyl(2-fluoro-4-(trifluoromethyl)phenyl)methyl)-1-(3-(-1,1,1-trifluoro-2-hydroxy-2-propanyl)benzoyl)-2-piperidinecarboxamide] was tested. Which AC1.4 did it give?
Answer: Its AC1.4 is 0.4457 µM.

Question: For C[C@H](C(=O)N[C@H](C)c1ccc(C(F)(F)F)cc1F)N(C)C(=O)[C@H]1CCCN(S(=O)(=O)N2CC(C#N)C2)C1 [Example 209, (3S)-1-((3-cyano-1-azetidinyl)sulfonyl)-N-((2R)-1-(((1R)-1-(2-fluoro-4-(trifluoromethyl)phenyl)ethyl)amino)-1-oxo-2-propanyl)-N-methyl-3-piperidinecarboxamide], which AC1.4 is on record?
Answer: The AC1.4 was 0.4473 µM.

Question: O=C(NCc1ccc(C(F)(F)F)cc1)[C@H]1CCCN1C(=O)[C@H]1CCCN(S(=O)(=O)N2CC(OCc3ccc(Cl)cc3)C2)C1 [Example 210, 1-(((3S)-1-((3-((4-chlorobenzyl)oxy)-1-azetidinyl)sulfonyl)-3-piperidinyl)carbonyl)-N-(4-(trifluoromethyl)benzyl)-D-prolinamide] was tested. Which AC1.4 did it give?
Answer: Its AC1.4 is 0.4487 µM.

Question: How did the AC1.4 turn out when O=C(N[C@@H](c1ccc(C(F)(F)F)cc1F)C1CC1)[C@H]1C[C@H]2C[C@H]2N1C(=O)c1cccc(S(=O)(=O)C2CC2)c1 [Example 211, (1R,3R,5R)-N-((R)-cyclopropyl(2-fluoro-4-(trifluoromethyl)phenyl)methyl)-2-(3-(cyclopropylsulfonyl)benzoyl)-2-azabicyclo[3.1.0]hexane-3-carboxamide] was run?
Answer: Its AC1.4 is 0.4488 µM.

Question: With CCS(=O)(=O)c1cccc(C(=O)N2CCC[C@@H]2C(=O)N[C@@H](c2ccc(C(F)(F)F)cc2F)C2CC2)c1 [Example 212, N-((R)-cyclopropyl(2-fluoro-4-(trifluoromethyl)phenyl)methyl)-1-(3-(ethylsulfonyl)benzoyl)-D-prolinamide] as the compound, how does the AC1.4 read?
Answer: The AC1.4 was 0.4557 µM.

Question: For CC(C)(C)c1cccc(C(=O)N2[C@@H](C(=O)N[C@@H](c3ccc(C(F)(F)F)cc3F)C3COC3)C[C@H]3C[C@H]32)c1 [Example 213, (1R,3R,5R)-N-((R)-(2-fluoro-4-(trifluoromethyl)phenyl)(3-oxetanyl)methyl)-2-(3-(2-methyl-2-propanyl)benzoyl)-2-azabicyclo[3.1.0]hexane-3-carboxamide], which AC1.4 is on record?
Answer: The AC1.4 was 0.4603 µM.

Question: For CS(=O)(=O)c1ccc(C(=O)N2CCC[C@@H]2C(=O)N[C@@H](c2cc(F)c(Cl)cc2F)C2CC2)cn1 [Example 215, N-((R)-(4-chloro-2,5-difluorophenyl)(cyclopropyl)methyl)-1-((6-(methylsulfonyl)-3-pyridinyl)carbonyl)-D-prolinamide], which AC1.4 is on record?
Answer: Its AC1.4 is 0.4666 µM.

Question: Which AC1.4 does the source give for N#CC1CN(S(=O)(=O)N2CCC[C@H](C(=O)N3C[C@H](F)C[C@@H]3C(=O)NCc3ccc(C(F)(F)F)cc3)C2)C1 [Example 216, (4R)-1-(((3S)-1-((3-cyano-1-azetidinyl)sulfonyl)-3-piperidinyl)carbonyl)-4-fluoro-N-(4-(trifluoromethyl)benzyl)-D-prolinamide] here?
Answer: Its AC1.4 is 0.4746 µM.

Question: CCNc1ccccc1C(=O)N1[C@@H](C(=O)N[C@@H](c2ccc(C(F)(F)F)cc2F)C2COC2)C[C@H]2C[C@H]21 [Example 217, (1R,3R,5R)-2-(2-(ethylamrno)benzoyl)-N-((R)-(2-fluoro-4-(trifluoromethyl)phenyl)(3-oxetanyl)methyl)-2-azabicyclo[3.1.0]hexane-3-carboxamide] was tested. Which AC1.4 did it give?
Answer: Its AC1.4 is 0.4751 µM.

Question: For CS(=O)(=O)c1cc(F)cc(C(=O)N2[C@@H](C(=O)N[C@@H](c3ccc(C(F)(F)F)cc3F)C3COC3)C[C@H]3C[C@H]32)c1 [Example 219, (1R,3R,5R)-2-(3-fluoro-5-(methylsulfonyl)benzoyl)-N-((R)-(2-fluoro-4-(trifluoromethyl)phenyl)(3-oxetanyl)methyl)-2-azabicyclo[3.1.0]hexane-3-carboxamide], which AC1.4 is on record?
Answer: The AC1.4 was 0.4808 µM.

Question: How did the AC1.4 turn out when CC(C)[C@H](NC(=O)[C@H]1CCCN1C(=O)c1cccc(S(=O)(=O)N2CC(C#N)C2)c1)c1ccc(C(F)(F)F)cc1F [Example 220, 1-(3-((3-cyano-1-azetidinyl)sulfonyl)benzoyl)-N-((1S)-1-(2-fluoro-4-(trifluoromethyl)phenyl)-2-methylpropyl)-D-prolinamide] was run?
Answer: The AC1.4 was 0.4809 µM.

Question: With N#CC1CN(S(=O)(=O)N2CCC[C@H](C(=O)N3CCC[C@@H]3C(=O)NCc3ccc(F)c(F)c3)C2)C1 [Example 221, 1-(((3S)-1-((3-cyano-1-azetidinyl)sulfonyl)-3-piperidinyl)carbonyl)-N-(3,4-difluorobenzyl)-D-prolinamide] as the compound, how does the AC1.4 read?
Answer: The AC1.4 was 0.4821 µM.

Question: How did the AC1.4 turn out when CS(=O)(=O)c1ccnc(C(=O)N2CCC[C@@H]2C(=O)N[C@@H](c2cc(F)c(Cl)cc2F)C2CC2)c1 [Example 222, N-((R)-(4-chloro-2,5-difluorophenyl)(cyclopropyl)methyl)-1-((4-(methylsulfonyl)-2-pyridinyl)carbonyl)-D-prolinamide] was run?
Answer: The AC1.4 was 0.4825 µM.

Question: For O=C(N[C@@H](c1ccc(C(F)(F)F)cc1F)C1CC1)[C@H]1CCCN1C(=O)c1cccc(S(=O)(=O)C2CC2)c1 [Example 223, N-((R)-cyclopropyl(2-fluoro-4-(trifluoromethyl)phenyl)methyl)-1-(3-(cyclopropylsulfonyl)benzoyl)-D-prolinamide], which AC1.4 is on record?
Answer: The AC1.4 was 0.4842 µM.

Question: Which AC1.4 does the source give for NS(=O)(=O)c1cccc(C(=O)N2CCC[C@@H]2C(=O)N[C@@H](c2cc(F)c(Cl)cc2F)C2CC2)c1 [Example 224, N-((R)-(4-chloro-2,5-difluorophenyl)(cyclopropyl)methyl)-1-(3-sulfamoylbenzoyl)-D-prolinamide] here?
Answer: The AC1.4 was 0.485 µM.

Question: Which AC1.4 does the source give for O=C(N[C@@H](c1cc(F)c(C(F)(F)F)cc1F)C1CC1)[C@H]1C[C@H]2C[C@H]2N1C(=O)c1ccnc(C(F)(F)F)c1 [Example 225, (1R,3R,5R)-N-((R)-cyclopropyl(2,5-difluoro-4-(trifluoromethyl)phenyl)methyl)-2-((2-(trifluoromethyl)-4-pyridinyl)carbonyl)-2-azabicyclo[3.1.0]hexane-3-carboxamide] here?
Answer: The AC1.4 was 0.4889 µM.

Question: O=C(NCc1ccc(C(F)(F)F)cc1)[C@H]1CCCN1C(=O)[C@H]1CCCN(S(=O)(=O)N2CC(c3ccon3)C2)C1 [Example 227, 1-(((3S)-1-((3-(1,2-oxazol-3-yl)-1-azetidinyl)sulfonyl)-3-piperidinyl)carbonyl)-N-(4-(trifluoromethyl)benzyl)-D-prolinamide] was tested. Which AC1.4 did it give?
Answer: Its AC1.4 is 0.4927 µM.

Question: For CNc1ccc(S(C)(=O)=O)cc1C(=O)N1CCC[C@@H]1C(=O)N[C@@H](c1ccc(C(F)(F)F)cc1F)C1CC1 [Example 228, N-((R)-cyclopropyl(2-fluoro-4-(trifluoromethyl)phenyl)methyl)-1-(2-(methylamino)-5-(methylsulfonyl)benzoyl)-D-prolinamide], which AC1.4 is on record?
Answer: The AC1.4 was 0.4974 µM.

Question: Which AC1.4 does the source give for CC(C)[C@H](NC(=O)[C@H]1CCCN1C(=O)[C@H]1CCCN(S(=O)(=O)N2CC(C#N)C2)C1)c1ccc(C(F)(F)F)cc1F [Example 229, 1-(((3S)-1-((3-cyano-1-azetidinyl)sulfonyl)-3-piperidinyl)carbonyl)-N-((1S)-1-(2-fluoro-4-(trifluoromethyl)phenyl)-2-methylpropyl)-D-prolinamide] here?
Answer: Its AC1.4 is 0.5053 µM.

Question: With Cc1cc(C(=O)N2[C@@H](C(=O)N[C@@H](c3ccc(C(F)(F)F)cc3F)C3CC3)C[C@H]3C[C@H]32)c(NC2CCC2)cn1 [Example 230, (1R,3R,5R)-2-((5-(cyclobutylamino)-2-methyl-4-pyridinyl)carbonyl)-N-((R)-cyclopropyl(2-fluoro-4-(trifluoromethyl)phenyl)methyl)-2-azabicyclo[3.1.0]hexane-3-carboxamide] as the compound, how does the AC1.4 read?
Answer: The AC1.4 was 0.5074 µM.

Question: Which AC1.4 does the source give for O=C(N[C@@H](c1cc(F)c(Cl)cc1F)C1CC1)[C@H]1C[C@H]2C[C@H]2N1C(=O)c1ccnc(C(F)(F)F)c1 [Example 231, (1R,3R,5R)-N-((R)-(4-chloro-2,5-difluorophenyl)(cyclopropyl)methyl)-2-((2-(trifluoromethyl)-4-pyridinyl)carbonyl)-2-azabicyclo[3.1.0]hexane-3-carboxamide] here?
Answer: The AC1.4 was 0.5188 µM.

Question: How did the AC1.4 turn out when CS(=O)(=O)c1cccc(C(=O)N2CCC[C@@H]2C(=O)N[C@@H](c2ccc(C(F)(F)F)cc2F)C2COC2)c1 [Example 232, N-((R)-(2-fluoro-4-(trifluoromethyl)phenyl)(3-oxetanyl)methyl)-1-(3-(methylsulfonyl)benzoyl)-D-prolinamide] was run?
Answer: Its AC1.4 is 0.5201 µM.
